# According to patent US4451485A, “Treatment of cardio-vascular diseases with 3-(2,2,2-trimethylhydrazinium) propionate dihydrate” (Institu Organicheskogo Sinteza Akademii Nauk Latviiskoi SSR, priority 1981, dated 1984):
# Key:
# [1] = Aconitine arrhythmia in rats after repeated peroral administration; format: in vivo, white rats
# Experimental: The antiarrhythmic activity was studied in experiments on white rats of both sexes with a mass of 190 to 230 g narcotized by urethane. An ECG was recorded for these animals. Into the femoral vein of the rats, aconitine was introduced at a constant rate and its arrhythmogenic and lethal doses were determined along with their variation under the protective effect of the preparation according to the present invention.
# [2] = Strophanthin arrhythmia in guinea pigs (450 μg/kg); format: in vivo
# Experimental: As the third model of arrhythmia, there was used strophanthin arrhythmia in guinea pigs. […] Against the background of arrhythmia the test preparations were administered intravenously.
# [3] = Arterial pressure, respiration and responses to biogenic amines in narcotized cats; format: in vivo
# Experimental: The study of the preparation according to the present invention for arterial pressure, breathing and hemodynamic effects of norepinephrine, neoepinephrine, novoepinephrine, acetylcholine and histamine was carried out in experiments on cats with a mass of 2.8 to 4.0 kg narcotized by chlorase. There were then recorded the animals' arterial pressure, respiration and ECG on a physiograph produced by Narco Bio-Systems Co.
# [4] = Storage stability of pharmaceutical preparations; format: physicochemical
# [5] = Clinical study in patients with ischemic heart disease, peroral, 4 weeks; format: in vivo, men and women (patients with IHD); details: for hemodynamic impact: before treatment 14.6 + 1.2; for pulse pressure: before treatment 47.6 + 0.6; for isometric contraction: before treatment 53 + 2; for asynchron. contraction: before treatment 56 + 2; for distolic pressure: before treatment 68.2 + 0.6; for heart rate: before treatment 72.3 + 1.5; for average dynamic pressure: before treatment 89.7 + 1.2; for tension period: before treatment 109 + 4; for lateral systolic pressure: before treatment 115.8 + 0.5; for final systolic pressure: before treatment 130.4 + 2.0; for expulsion phase: before treatment 222 + 4; for rate of heart relaxation: before treatment 250 + 9; for volume of heart ejection: before treatment 315 + 15; for diastol.: before treatment 499 + 14; for involution period: before treatment 830 + 26; for rate of pressure raise: before treatment 1,188 + 30
# Excerpt: The following hemodynamic parameters were studied: rate of the heart's beat (RHB), electrocardiogram (ECG), all types of arterial pressure with the curve recording on a Mechanocardiograph 063 (Savitsky's model), beat ejection according to the Wremser-Ranke method, speed of pulse wave propagation, phase analysis of the left ventricle systole on an instrument Mingograph M-34, as well as amplitude time parameters (volume rate of ejection VRE, speed of pressure growth (SPG), rate of heart relaxation (RHR)).
# For evaluation of contraction properties of myocardium separately during its systolic and diastolic periods of contraction there were used amplitude-time characteristics rate of heart ejection (RHE), rate of pressure rise (RPR) and rate of heart relaxation (RHR).
# The rate of heart ejection (RHE) is determined by the formula: (BV6/E), wherein BV--beat volume in ml, E--time of the expulsion phase in seconds.
# The rate of pressure rise is determined by the formula: [formula] wherein DP--diastolic pressure in mm, Hg, 5--conventional value of the final diastolic pressure in the aorta, IC--isometric contraction. RPR characterized contractive properties of the myocardium during the period of closed valves and its ability to rapidly surpass the value of pressure in the aorta for opening of the aortic valves.
# The rate of heart relaxation (RHR) characterizes activity of the myocardium at the moment of diastole and is determined by the formula [formula] wherein SP--systolic pressure in the brachial artery in mm Hg, 5--conventional value of the final diastolic pressure in the aorta, D--duration of the diastolic period in seconds.
# [6] = Antianginal effect in patients, intravenous; format: in vivo; details: 0.2 to 0.4 g intravenous
# Experimental: (§1) The antianginal and antiarrhythmic effects of the preparation according to the present invention were evaluated with the use of the injection pharmaceutical form of the preparation administered intravenously in an amount of 0.2 to 0.4 g based on the active ingredient.
# [7] = Efficiency in extrasystolic arrhythmia in patients, intravenous; format: in vivo; details: 1 ml of a 40% solution intravenous; 7 patients
# Experimental: as §1
# The preparation efficiency in the case of extrasystolic arrhythmia was studied on 7 patients.
# The intravenous administration of the preparation (1 ml of a 40% solution) arrested the rhythm disorder for 5-20 minutes.
smiles,measurement,setting,value
"C[N+](C)(C)NCCC(=O)[O-] [3-(2,2,2-trimethylhydrazinium)propionate]","Aconitine dose variation, arrhythmogenic","[1]; 25 mg/kg perorally, 1 week",38.7%
same,"Aconitine dose variation, lethal","[1]; 25 mg/kg perorally, 1 week",27.6%
same,"Aconitine dose variation, arrhythmogenic","[1]; 25 mg/kg perorally, 2 weeks",42.26%
same,"Aconitine dose variation, lethal","[1]; 25 mg/kg perorally, 2 weeks",24.7%
same,"Aconitine dose variation, arrhythmogenic","[1]; 100 mg/kg perorally, 1 week",55.6%
same,"Aconitine dose variation, lethal","[1]; 100 mg/kg perorally, 1 week",16.2%
same,"Aconitine dose variation, arrhythmogenic","[1]; 100 mg/kg perorally, 2 weeks",34.6%
same,"Aconitine dose variation, lethal","[1]; 100 mg/kg perorally, 2 weeks",9.7%
same,Protective effect against aconitine,[1]; peroral,pronounced protective effect
same,ED50,"[2]; Cavia porcellus, intravenous, read-out: ED50, Strophanthin arrhythmia in guinea pigs",7.8 ± 2.3 mg/kg
same,"Antiarrhythmic index LD50/ED50, Strophanthin arrhythmia in guinea pigs","[2]; guinea pig, in vivo",568
same,Duration for which Strophanthin-induced arrhythmia is cut short / ECG improved,[2]; intravenous,5 to 20 min
same,"Change in arterial pressure, pulse frequency and respiration",[3]; 0.5 to 2.0 mg/kg intravenous,"did not result in any essential change in arterial pressure, pulse frequency and respiration"
same,Level of responses to biogenic amines,[3]; 0.5 to 2.0 mg/kg intravenous,did not change changed the level of responses to biogenic amines
same,Change in response to acetyl choline,[3]; 15-25 mg/kg,10-15%
same,Change in response to neoepinephrine,[3]; 15-25 mg/kg,5-10%
same,Increase of the response to histamine,[3]; 15-25 mg/kg,5-10%
same,Short-time reduction of arterial pressure,[3]; 15-25 mg/kg,5-20 mm Hg
same,Duration of increase of arterial pressure,"[3]; 15-25 mg/kg, some cases",5 to 12 min
same,Increase of arterial pressure vs initial value,"[3]; 15-25 mg/kg, some cases",5-10 mm Hg
same,Blood pressure or response to biogenic amines,[3]; further increase of dose,did not cause changes in blood pressure or response to the administration of biogenic amines
same,Stability in storage,[4]; +5° C.,stable in storage at a temperature of +5 °C for at least two years
same,Stability of pharmaceutical forms for peroral administration,[4]; room temperature,stable for two years at room temperature
same,hemodynamic impact,[5]; 1st week,18.2 + 1.0
same,pulse pressure,[5]; 1st week,46.5 + 1.1
same,isometric contraction,[5]; 1st week,49 + 3 millisec.
same,asynchron. contraction,[5]; 1st week,55 + 4
same,distolic pressure,[5]; 1st week,69.9 + 1.3
same,heart rate,[5]; 1st week,67.8 + 1.8 beat/min
same,average dynamic pressure,[5]; 1st week,90.6 + 0.7
same,tension period,[5]; 1st week,104 + 2 milliseconds
same,lateral systolic pressure,[5]; 1st week,116.4 + 2.1
same,final systolic pressure,[5]; 1st week,134.6 + 1.6 mm/Hg
same,expulsion phase,[5]; 1st week,225 + 2 milliseconds
same,rate of heart relaxation,[5]; 1st week,238 + 10 mm Hg/sec
same,volume of heart ejection,[5]; 1st week,320 + 23 ml/sec
same,diastol.,[5]; 1st week,543 + 21 milliseconds
same,involution period,[5]; 1st week,873 + 33
same,rate of pressure raise,[5]; 1st week,"1,326 + 45 mm Hg/sec"
same,hemodynamic impact,[5]; 2nd week,24.6 + 0.7
same,pulse pressure,[5]; 2nd week,48.6 + 1.6
same,isometric contraction,[5]; 2nd week,46 + 4 millisec.
same,asynchron. contraction,[5]; 2nd week,54 + 2
same,distolic pressure,[5]; 2nd week,70.3 + 0.9
same,heart rate,[5]; 2nd week,64.3 + 1.3 beat/min
same,average dynamic pressure,[5]; 2nd week,91.2 + 1.2
same,tension period,[5]; 2nd week,100 + 4 milliseconds
same,lateral systolic pressure,[5]; 2nd week,118.9 + 1.7
same,final systolic pressure,[5]; 2nd week,143.5 + 1.8 mm/Hg
same,expulsion phase,[5]; 2nd week,230 + 3 milliseconds
same,rate of heart relaxation,[5]; 2nd week,229 + 8 mm Hg/sec
same,volume of heart ejection,[5]; 2nd week,322 + 13 ml/sec
same,diastol.,[5]; 2nd week,603 + 21 milliseconds
same,involution period,[5]; 2nd week,933 + 42
same,rate of pressure raise,[5]; 2nd week,"1,473 + 130 mm Hg/sec"
same,hemodynamic impact,[5]; 3rd week,24.9 + 1.5
same,pulse pressure,[5]; 3rd week,47.8 + 1.4
same,isometric contraction,[5]; 3rd week,43 + 2 millisec.
same,asynchron. contraction,[5]; 3rd week,56 + 4
same,distolic pressure,[5]; 3rd week,72.3 + 1.4
same,heart rate,[5]; 3rd week,60.1 + 1.6 beat/min
same,average dynamic pressure,[5]; 3rd week,92.0 + 1.8
same,tension period,[5]; 3rd week,99 + 3 milliseconds
same,lateral systolic pressure,[5]; 3rd week,120.1 + 1.4
same,final systolic pressure,[5]; 3rd week,145.0 + 2.4 mm/Hg
same,expulsion phase,[5]; 3rd week,232 + 4 milliseconds
same,rate of heart relaxation,[5]; 3rd week,209 + 8 mm Hg/sec
same,volume of heart ejection,[5]; 3rd week,374 + 14 ml/sec
same,diastol.,[5]; 3rd week,669 + 14 milliseconds
same,involution period,[5]; 3rd week,1000 + 42
same,rate of pressure raise,[5]; 3rd week,"1,581 + 54 mm Hg/sec"
same,hemodynamic impact,[5]; 4th week,25.0 + 0.7
same,pulse pressure,[5]; 4th week,53.6 + 1.2
same,isometric contraction,[5]; 4th week,33 + 2 millisec.
same,asynchron. contraction,[5]; 4th week,55 + 3
same,distolic pressure,[5]; 4th week,72.0 + 1.8
same,heart rate,[5]; 4th week,62.2 + 1.4 beat/min
same,average dynamic pressure,[5]; 4th week,92.2 + 1.0
same,tension period,[5]; 4th week,88 + 2 milliseconds
same,lateral systolic pressure,[5]; 4th week,125.6 + 0.7
same,final systolic pressure,[5]; 4th week,150.6 + 2.7 mm/Hg
same,expulsion phase,[5]; 4th week,235 + 3 milliseconds
same,rate of heart relaxation,[5]; 4th week,226 + 12 mm Hg/sec
same,volume of heart ejection,[5]; 4th week,357 + 17 ml/sec
same,diastol.,[5]; 4th week,642 + 14 milliseconds
same,involution period,[5]; 4th week,965 + 21
same,rate of pressure raise,[5]; 4th week,"2,030 + 68 mm Hg/sec"
same,Arterial pressure,[5]; peroral,growth of all types of AP
same,Electrocardiographic findings,[5]; peroral,"slight decrease of the rate of the heart's beat, disappearance of auricular and ventricular extrasystoles, reinversion of the T ripple and increase of its positive amplitude"
same,Phase analysis of the left ventricle,"[5]; peroral, during the treatment","the involution period T was definitely increased, the phase of expulsion E was reduced, the period of tension PT shortened"
same,Improvement of patients' state,"[5]; peroral, first week",considerable improvement of the patients' state of health
same,Stability of analgesic effect,[6],not always stable
same,Effect on retrosternal pains,[6]; 8 cases in 5 patients,rapidly cut short retrosternal pains
same,Duration of arrest of the rhythm disorder,[7],5 to 20 min
